1 compound from publication PMC8654847, “Design of a methotrexate-controlled chemical dimerization system and its use in bio-electronic devices” (Nature Communications, 2021) can be followed below.

The assay deals with T1, anti-MTX VHH.
T1 construct: nanoCLAMP8-VHH fusion for the crystal structure 7RG7
The assay is described as follows: microscale thermophoresis (EGFP-VHH titrated with MTX); […] Å crystal structure of the ternary complex with nanoCLAMP8. The assay is classed as binding.

For `CN(Cc1cnc2nc(N)nc(N)c2n1)c1ccc(C(=O)N[C@@H](CCC(=O)O)C(=O)O)cc1` [MTX, methotrexate], the Kd is 4.3 ± 0.25 nM.
